Series [1] concerns Myzus persicae Suizer - green peach aphid. Put plainly: Test Example 4: Effect on green peach aphid, density of living insects. The format is in vivo. The conditions noted are these: 50 ppm, after three days; 100 × (living insects after / before treatment). The method, then:
Effect on Myzus persicae Suizer green peach aphid
20 ml of a dilution of the emulsion prepared in Formulation Example 1 was sprayed over potted eggplant seedlings (fourth or fifth leaf stage), as having been grown in a greenhouse, on which the green peach aphids had been parasitic. After the application, the seedlings were placed in the greenhouse and, after three days, the number of the aphids was checked.
(§1) Density of Living Insects = 100 × (number of living insects after
(§2) treatment/number of living insects before treatment)

For series [2], the system named is Callosobruchus chinensis Linne - Azuki bean weevil. Put plainly: whole plant or invertebrate. The class given is in vivo. To be noted: 48 h. The method, then: Effect on Callosobruchus chinensis Linne--Azuki bean weevil:
An acetone solution of the compound of the invention was added to a Petri dish with a diameter of 9 cm, followed by removal of the acetone by evaporation. Twenty female adults of the Azuki bean weevil, which were 2 to 3 days after emergence were placed in the dish at 25° C. After 48 hours, the mortality was checked.

Series [3] deals with resistant strain of Nephotettix cincticeptus Uhler - resistant green rice leafhopper. Put plainly: Test Example 2: Effect on resistant green rice leafhopper, mortality. The format is in vivo. The conditions noted are these: Nephotettix cincticeps. As for the experimental part: (§3) Effect on resistant strain of Nephotettix cincticeptus Uhler--resistant green rice leafhopper
The emulsion prepared in Formulation Example 1 was diluted to a predetermined concentration and 3 ml of the diluted emulsion was applied over a bundle of several rice seedlings (about third leaf stage). After drying in air, the treated seedlings were covered with a metal gauze cylinder, in which ten female adults of the leafhopper that is resistant to organophosphate and carbamate insecticides were released, followed by placing in a temperature controlled room at 25° C. After 48 hours, the mortality was checked.

Series [4] relates to Laodelphax striatellus Fallen - smaller brown planthopper. Put plainly: Test Example 1: Effect on smaller brown planthopper, mortality. The format is in vivo. The conditions noted are these: 5 ppm, 48 hours, 25° C., ten female adults, rice seedlings. As for the experimental part: Effect on Laodelphax sriatellus Fallen--smaller brown planthopper
The emulsion prepared in Formulation Example 1 was diluted to a predetermined concentration and 2 ml of the diluted emulsion was applied over a bundle of several rice seedlings (about third leaf stage). After drying in air, the treated seedlings were covered with a metal gauze cylinder, in which ten female adults of the smaller brown planthopper were released, followed by placing in a temperature controlled room at 25° C. After 48 hours, the mortality was checked.

In series [5] the test system is Myzus persicae Suizer - green peach aphid. Put plainly: Test Example 7: Effect on green peach aphid, density of living insects. The class given is in vivo. The conditions noted are these: after three days; 100 × (living insects after / before treatment).
Description: Effect on Myzus persicae Suizer--green peach aphid
After the application, the seedlings were placed in the greenhouse and, after three days, the number of the aphids was checked, from which the density of the living insects was obtained. The tests were repeated two times.
as §1, §2

Series [6] concerns resistant strain of Nephotettix cincticeptus Uhler - resistant green rice leafhopper. Put plainly: Test Example 6: Effect on resistant green rice leafhopper, LC50. The class given is in vivo. To be noted: Nephotettix cincticeps, 48 h. As for the experimental part:
as §3
The emulsion prepared in Formulation Example 1 was diluted to predetermined concentrations, and 2 ml of each diluted emulsion was applied over a bundle of several rice seedlings (about third leaf stage). After drying in air, the treated seedlings were covered with a metal gauze cylinder, in which ten female adults of the leafhopper that is resistant to organophosphate and carbamate insecticides were released, followed by placing in a temperature controlled room at 25° C. After 48 hours, the mortality was checked, from which the 50 %-lethal concentration (LC50) was obtained.

The test system of series [7] is Laodelphax striatellus Fallen - smaller brown planthopper. Put plainly: Test Example 5: Effect on smaller brown planthopper, LC50. The format is in vivo. To be noted: 48 hours, 25° C. The method, then: Effect on Laodelphax striatellus Fallen--smaller brown planthopper
The emulsion prepared in Formulation Example 1 was diluted to predetermined concentrations, and 2 ml of each diluted emulsion was applied over a bundle of several rice seedlings (about third leaf stage). After drying in air, the treated seedlings were covered with a metal gauze cylinder, in which ten female adults of the smaller brown planthopper were released, followed by placing in a temperature controlled room at 25° C. After 48 hours, the mortality was checked, from which the medium-lethal concentration […] was obtained.

The nature of series [8]: Test Example 8: Acute Toxicity Test to Mice. To be noted: mouse, in vivo, po; forced peroral administration, corn oil, 6-week mice, up to 14 days. The method, then:
Acute Toxicity Test to Mice
The compound of the invention having a predetermined concentration was dissolved in corn oil and applied to 6-week mice by forced peroral administration. Up to 14 days from the administration, the number of the died mice was counted periodically, from which the 50 %-lethal […] (LD50) was obtained. One group for the test comprised ten mice.

The mark [9] stands for this setting: 3 ppm, 48 hours, 25° C., ten female adults resistant to organophosphate and carbamate insecticides, read-out: Mortality (%).

SMILES strings stand for the structures. Values after ≈ are worked out from the molar mass of the structure shown. Like-named read-outs stand apart in the source and are kept apart here. Where only a bound is given, the exact number is not on record here.

The term mortality denotes the percentage killed. The LC50 is the concentration that kills 50% of the test population. High values mean a less lethal substance, low ones a more lethal substance. As a reminder, the LD50 is the dose at which mortality reaches 50%. A higher LD50 goes with lower toxicity.

`COP(=O)(OC)OC=C(Cl)Cl` [DDVP, 0,0-dimethyl-0-(2,2-dichlorovinyl)phosphate]: the “Density of Living Insects” value in series [1] stood at 30.

In series [2], `CCOP(=S)(OCC)Oc1cc(C)nc(C(C)C)n1` [Diazinone] came in with a mortality at 0.01 mg/dish, 0.01 mg/dish of 58%.

Turning to `C=CN1CCN(Cc2ccc(Cl)nc2)C1=N[N+](=O)[O-]` [No. 1], the mortality at 3 ppm in series [3] (setting [9]) is 100%. In addition, in series [4], the “Mortality (%)” value was determined as 100%.

Take `O=[N+]([O-])N=C1N(C=Cc2ccccc2)CCN1Cc1ccc(Cl)nc1` [No. 2]: the mortality at 3 ppm in series [3] (48 h) turned out to be 100%. Besides, in series [5], the “Density of Living Insects” value is given as 20. Moreover, the LC50 in series [6] is 1.5 mg/L (≈ 4.19 µM); in series [7], 3 ppm.

For the molecule `COc1ccc(C=CN2CCN(Cc3ccc(Cl)nc3)C2=N[N+](=O)[O-])cc1` [No. 10], in series [3] (setting [9]), the mortality at 3 ppm came to 100%. This molecule also yielded an LD50 at 336 h in series [8] above 5000 mg/kg.

For the molecule `O=[N+]([O-])N=C1N(C=Cc2ccc3c(c2)OCO3)CCN1Cc1ccc(Cl)nc1` [No. 11], the mortality at 3 ppm in series [3] (setting [9]) was 100%. Moreover, the “Mortality (%)” value in series [4] stood at 100%.

As to `O=[N+]([O-])N=C1N(C=Cc2ccccc2Cl)CCN1Cc1ccc(Cl)nc1` [No. 12], the “Mortality (%)” value in series [4] amounted to 100%.

Consider `O=[N+]([O-])N=C1N(C=Cc2ccc(Cl)cc2)CCN1Cc1ccc(Cl)nc1` [No. 14], for which the “Mortality (%)” value in series [4] was 100%.

Regarding `CC(C)C=CN1CCN(Cc2ccc(Cl)nc2)C1=N[N+](=O)[O-]` [No. 27], the LD50 at 336 h in series [8] amounted to 1000 mg/kg. Further, the “Density of Living Insects” value in series [5] turned out to be 0. Also, the figures for the LC50 in series [6] and in series [7] were 0.3 mg/L (≈ 0.927 µM) and 1 ppm, respectively.

Consider `CCCCC(=CN1CCN(Cc2ccc(Cl)nc2)C1=N[N+](=O)[O-])CC` [No. 33, 1-(2-chloropyridin-5-ylmethyl)-2-nitroimino-3-(2-ethyl-1hexenyl)imidazlidine], for which the mortality at 3 ppm in series [3] (setting [9]) was 100%. The “Mortality (%)” value in series [4] is reported as 100%.

Consider `O=[N+]([O-])N=C1N(C=CCc2ccccc2)CCN1Cc1ccc(Cl)nc1` [No. 40], for which the mortality at 3 ppm in series [3] (setting [9]) was determined as 100%. Besides, the “Mortality (%)” value in series [4] came to 100%.

Consider `O=C(NC=CN1CCN(Cc2ccc(Cl)nc2)C1=N[N+](=O)[O-])c1ccccc1` [No. 41], for which, in series [4], the “Mortality (%)” value is given as 100%.

`CCSC=CN1CCN(Cc2ccc(Cl)nc2)C1=N[N+](=O)[O-]` [No. 42, 1-(2-chloropyridin-5-ylmethyl)-2-nitroimino-3-(2-ethylthiovinyl)imidazolidine]: the “Mortality (%)” value in series [4] was determined as 100%.

`C=CCN1CCN(Cc2ccc(Cl)nc2)C1=N[N+](=O)[O-]` [Reference Chemical 1, 1(2-chloropyridin-5-ylmethyl)-2-nitroimino-3-allylimidazolidine, reference compound] showed an LD50 at 336 h in series [8] of 100 to 200 mg/kg. Further, in series [5], the “Density of Living Insects” value was 25. For the same molecule, the LC50 turned out to be 3 mg/L (≈ 10.1 µM) in series [6] and 10 ppm in series [7].

For the molecule `O=[N+]([O-])N=C1N(CCc2ccccc2)CCN1Cc1ccc(Cl)nc1` [Reference Chemical 2, 1(2-chloropyridin-5-ylmethyl)-2-nitroimino-3-(2-phenylethyl)imidazolidine, reference compound], the “Density of Living Insects” value in series [5] was determined as 108. In addition, the results for the LC50 in series [6] and in series [7] were 10 mg/L (≈ 27.8 µM) and 20 ppm, respectively.

For `O=[N+]([O-])N=C1N(CCc2ccc(Cl)cc2)CCN1Cc1ccc(Cl)nc1` [Reference Chemical (1), 1(2-chloropyridin-5-ylmethyl)-2-nitroimino-3-{2-(4-chlorophenyl)ethyl}imiazolidine, reference compound], the mortality at 3 ppm in series [3] (setting [9]) amounted to 25%. In addition, the “Mortality (%)” value in series [4] worked out at 20%.

Regarding `COCN1CCN(Cc2ccc(Cl)nc2)C1=N[N+](=O)[O-]` [Reference Chemical (2), 1(2-chloropyridin-5-ylmethyl)-2-nitroimino-3-methoxymethylimidazolidine, reference compound], in series [3] (setting [9]), the mortality at 3 ppm came to 30%. In addition, the “Mortality (%)” value in series [4] was 20%.

The values above are taken from patent publication US5310920A, “N-vinylimidazolidine derivatives insecticides containing same as an effective ingredient” (priority 1991, dated 1994).
